Test results reported in the NIST ThermoML archive (doi:10.1021/acs.jced.5b00934).

Settings: Liquid, Vibrating tube method

CC(C)(C)O [2-methylpropan-2-ol]
Settings | mass density [kg/m3]
303.15 K, 99 kPa | 775.3
303.15 K, 298 kPa | 775.5
303.15 K, 499 kPa | 775.7
303.15 K, 898 kPa | 776.1
303.15 K, 1002 kPa | 776.2
303.15 K, 2007 kPa | 777.1
303.15 K, 3007 kPa | 778.1
303.15 K, 4999 kPa | 780
303.15 K, 7003 kPa | 781.9
303.15 K, 8992 kPa | 783.7
303.15 K, 10005 kPa | 784.6
303.15 K, 11999 kPa | 786.3
308.15 K, 97 kPa | 770.2
308.15 K, 298 kPa | 770.4
308.15 K, 500 kPa | 770.6
308.15 K, 897 kPa | 771
308.15 K, 1002 kPa | 771.1
308.15 K, 2009 kPa | 772.1
308.15 K, 3000 kPa | 773.1
308.15 K, 5006 kPa | 775.1
308.15 K, 9006 kPa | 778.8
308.15 K, 10007 kPa | 779.7
308.15 K, 12005 kPa | 781.5
308.15 K, 15021 kPa | 784.1
308.15 K, 19998 kPa | 788.2
308.15 K, 22003 kPa | 789.8
308.15 K, 24990 kPa | 792.2
308.15 K, 28006 kPa | 794.5
308.15 K, 30005 kPa | 796
308.16 K, 7005 kPa | 777
308.16 K, 18006 kPa | 786.6
313.15 K, 99 kPa | 764.8
313.15 K, 298 kPa | 765
313.15 K, 502 kPa | 765.2
313.15 K, 904 kPa | 765.7
313.15 K, 1009 kPa | 765.8
313.15 K, 2016 kPa | 766.8
313.15 K, 3006 kPa | 767.8
313.15 K, 5010 kPa | 769.9
313.15 K, 7006 kPa | 771.8
313.15 K, 9005 kPa | 773.7
313.15 K, 10007 kPa | 774.7
313.15 K, 12005 kPa | 776.5
313.15 K, 15005 kPa | 779.2
313.15 K, 18003 kPa | 781.8
313.15 K, 20015 kPa | 783.5
313.15 K, 22002 kPa | 785.1
313.15 K, 25007 kPa | 787.5
313.15 K, 28002 kPa | 789.9
313.15 K, 30000 kPa | 791.4
313.15 K, 33001 kPa | 793.7
313.15 K, 33012 kPa | 793.6
313.15 K, 34006 kPa | 794.4
313.15 K, 35008 kPa | 795.1
313.15 K, 38012 kPa | 797.2
313.15 K, 40002 kPa | 798.6
313.15 K, 42007 kPa | 800
313.15 K, 44997 kPa | 802
313.16 K, 32001 kPa | 792.9
318.15 K, 100 kPa | 759.4
318.15 K, 298 kPa | 759.6
318.15 K, 498 kPa | 759.8
318.15 K, 901 kPa | 760.3
318.15 K, 1006 kPa | 760.4
318.15 K, 2001 kPa | 761.5
318.15 K, 3003 kPa | 762.6
318.15 K, 5002 kPa | 764.7
318.15 K, 7005 kPa | 766.7
318.15 K, 8999 kPa | 768.7
318.15 K, 10002 kPa | 769.7
318.15 K, 11999 kPa | 771.6
318.15 K, 15010 kPa | 774.4
318.15 K, 17998 kPa | 777
318.15 K, 20006 kPa | 778.8
318.15 K, 21999 kPa | 780.5
318.15 K, 24994 kPa | 782.9
318.15 K, 28005 kPa | 785.4
318.15 K, 30001 kPa | 787
318.15 K, 32001 kPa | 788.5
318.15 K, 32993 kPa | 789.3
318.15 K, 33002 kPa | 789.3
318.15 K, 34010 kPa | 790
318.15 K, 35001 kPa | 790.8
318.15 K, 38000 kPa | 793
318.15 K, 40010 kPa | 794.4
318.15 K, 42021 kPa | 795.9
318.15 K, 45005 kPa | 797.9
318.15 K, 47997 kPa | 799.9
318.15 K, 49998 kPa | 801.3
318.15 K, 52004 kPa | 802.6
318.15 K, 55002 kPa | 804.6
318.15 K, 57994 kPa | 806.5
318.15 K, 60002 kPa | 807.7
323.15 K, 99 kPa | 753.9
323.15 K, 298 kPa | 754.1
